Assays:
[1] = target: T1, tau inclusions in brain sections from transgenic P301S tau mice (human 0N4R tau) (Homo sapiens, UniProt P10636, P618S); assay: In vitro fluorescence microscopy of binding to transgenic P301S tau mouse brain sections
T1 construct: from tissue; host or cells: brain of transgenic P301S tau mice (C57Bl/6 background)
Protocol: We then screened all of the compounds for their binding to tau inclusions in brain sections from transgenic P301S tau mice, which express the shortest isoform (0N4R) of human 4-repeat (4R) tau,[18] using their autofluorescence properties to rapidly analyze their binding.
Mice were perfused with PBS followed by 4% PFA. Following 24 h in 4% PFA, the brains were transferred to 20% sucrose prior to being embedded in OCT for cryo-sectioning. Sections (14 μm) were incubated with 50 μM LM229 or PBB3 for 1 h, washed in PBS + 0.1% Triton X-100, and cover-slipped with Vectashield mounting medium. Sections were imaged using a Leica DM6000 microscope. Mouse monoclonal AT8 (MN1020) or AT100 (MN1060) were from ThermoFisher and used at 1:1000. Anti-mouse secondary antibody was conjugated to AlexaFluor647.

[2] = target: T2, 4R tau151-391 aggregates in brainstem sections from SHR72 rats (Homo sapiens, UniProt P10636); assay: Binding to SHR72 transgenic rat brain sections; details: 50 μM, colocalization with AT8
T2 construct: tissue AXON Neuroscience; host or cells: brain (brainstem) sections of SHR72 transgenic rats
T2 sequence (P10636 468-708): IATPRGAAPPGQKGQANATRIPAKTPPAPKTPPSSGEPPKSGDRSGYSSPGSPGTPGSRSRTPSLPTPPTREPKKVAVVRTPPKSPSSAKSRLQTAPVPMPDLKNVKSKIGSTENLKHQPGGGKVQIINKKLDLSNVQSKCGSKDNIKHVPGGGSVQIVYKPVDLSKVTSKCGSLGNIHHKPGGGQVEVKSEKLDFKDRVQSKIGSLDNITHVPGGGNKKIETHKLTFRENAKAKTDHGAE
Text: Since future PET studies for development of these compounds would require kinetic modeling for their assessment in vivo, we tested their performance in tau transgenic rats. Rat brains and blood volumes are about 6- and 10-fold larger, respectively, than those of mice and thus enable higher resolution imaging and ample volume for repeated blood sampling. We used two transgenic rat lines expressing human-truncated tau comprising the proline-rich region and either three microtubule binding domains (3R tau151-391, SH24)[28] or four microtubule binding domains (4R tau151-391, SHR72).[29] […] However, compared to the SHR24 rat brain sections, there were less inclusions detected, which seems to indicate the compounds have preferential binding toward the three repeat forms of tau in these rat models.
Fresh frozen rat brain coronal sections (10 μm) were stored on slides at −80 °C until use. Sections were fixed in ice cold acetone for 10 min and air-dried and then rehydrated twice for 5 min with buffer (10 mM PBS with 0.1% Triton X-100) before application of 5% bovine serum albumin for 1 h and two more 5 min buffer washes. […] The green autofluorescence of PBB3 and LM229 was visualized using a 488 nm filter and fluorescence of AT8 using a 568 nm filter on a Leica DM6000 microscope.

[3] = target: tau aggregates in human globus pallidus/putamen from PSP subjects (Homo sapiens, UniProt P10636); assay: Staining of post-mortem PSP brain tissue; details: colocalized with AT8
Sequence of tau aggregates in human globus pallidus/putamen from PSP subjects (P10636 561-698 limits assumed): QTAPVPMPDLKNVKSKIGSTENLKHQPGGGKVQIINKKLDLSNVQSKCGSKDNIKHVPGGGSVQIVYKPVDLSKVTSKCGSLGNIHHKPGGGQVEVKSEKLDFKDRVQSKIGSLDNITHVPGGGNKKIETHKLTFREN
Protocol: To further validate LM229 as a potential radiotracer for translational research, we investigated its binding to tau aggregates in human globus pallidus/putamen from progressive supranuclear palsy (PSP) subjects (Figure 7) and its selectivity for tau over β-amyloid pathology in AD frontal cortex sections (Figure 8). […]
buffer) for 1 h at room temperature. Following 3 washes in PBS/0.1% Triton X-100, 50 µM LM229 (diluted in 1:1 blocking buffer/ethanol) was then added for 1 h at room temperature. Nuclei were stained with DAPI (0.1mg/ml for 10 min), washed and tissues mounted in FluorSaveTM prior to analysis using fluorescence […]
Binding affinity of all compounds with tau fibrils
Microscale Thermophoresis was first used to screen whether there were interaction between the compounds and tau fibrils. […] With each compound, two concentrations (1µM and 1nM) were used to mix with 100nM tau fibrils and then loaded to the MST instrument to read out the MST data curve. […]
DRG were incubated with the indicated concentrations of LM229 or PBB3 for 20 minutes at room temperature, washed 3 times in PBS, and imaged on a Leica DMI 4000B microscope using a Leica DFC3000 G camera and the Leica application suite 4.0.0.11706. Fluorescence intensity was measured in 10-16 neurons each from 3 independent cultures using Image J (imagej.nih.gov/ij/). […]

[4] = target: β-amyloid in AD frontal cortex sections (Homo sapiens, UniProt P05067); assay: Staining of post-mortem AD frontal cortex sections, β-amyloid
Sequence of β-amyloid in AD frontal cortex sections (P05067 672-711 limits assumed): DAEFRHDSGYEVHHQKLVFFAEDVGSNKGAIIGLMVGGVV
Text: To further validate LM229 as a potential radiotracer for translational research, we investigated its binding to tau aggregates in human globus pallidus/putamen from progressive supranuclear palsy (PSP) subjects (Figure 7) and its selectivity for tau over β-amyloid pathology in AD frontal cortex sections (Figure 8). […] In slices from frontal cortex of AD brains, LM229 gave rise to strong signal (Figure 8A), which colocalized with AT8 immunofluorescence (Figure 8B).

T1 sequence (P10636 1-383 isoform P10636-6 P243S): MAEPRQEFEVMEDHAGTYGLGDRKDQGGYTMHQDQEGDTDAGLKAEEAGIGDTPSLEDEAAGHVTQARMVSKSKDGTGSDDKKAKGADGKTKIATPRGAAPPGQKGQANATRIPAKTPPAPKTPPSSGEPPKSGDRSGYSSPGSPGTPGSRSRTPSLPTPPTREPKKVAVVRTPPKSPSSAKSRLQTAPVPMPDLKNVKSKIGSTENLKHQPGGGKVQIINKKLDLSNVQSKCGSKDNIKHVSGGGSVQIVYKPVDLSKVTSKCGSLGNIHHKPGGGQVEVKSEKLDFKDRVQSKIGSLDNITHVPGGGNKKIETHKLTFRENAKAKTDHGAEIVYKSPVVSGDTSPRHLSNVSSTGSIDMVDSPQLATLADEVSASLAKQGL

CNc1ccc(/C=C/C=C/c2nc3cc(F)c(O)cc3s2)cn1 [LM229]
Binding to P301S tau mouse brain sections, 2 months of age ([1]; 2 months old mice): Rare binding | Binding to P301S tau mouse brain sections, 6 months of age ([1]; 6 months old mice): significant binding to large populations of neurons | Binding to tau inclusions in P301S tau mouse brain sections ([1]; autofluorescence, co-staining with AT8 and AT100): intense, specific binding | Binding to WT mouse brain sections ([1]; brainstem sections from WT animals): No specific binding | Binding to tau in SHR72 rat brain sections [2]: bound to tau in brain sections from SHR72 rats | Signal on PSP sections [3]: intense signal | Fluorescence intensity colocalized with Aβ relative to tau [4]: lower
